Active and inactive are the calls of the source. The rule behind the calls is not given here.
system: SARS-CoV-2; assay: Antiviral activity against SARS-CoV-2 XBB1.16 infected in human Caco-2 cells expressing hTMPRSS/hACE2 incubated for 48 hrs in presence of CP-100356 by crystal violet staining based analysis; type: functional, organism-based; conditions: Severe acute respiratory syndrome coronavirus 2, XBB1.16, Caco-2, 48 h

| SMILES | EC50 [nM] |
| --- | --- |
| CC(C)(C)[C@H](NC(=O)C(F)(F)F)C(=O)N1C[C@H]2[C@@H]([C@H]1C(=O)N[C@H](C#N)C[C@@H]1CCNC1=O)C2(C)C | 37.1 |

biological target: T1, Replicase polyprotein 1ab (Severe acute respiratory syndrome coronavirus 2, UniProt P0DTD1); assay: Inhibition of SARS-CoV-2 PL protease preincubated for 30 mins followed by substrate addition measured after 3 hrs; conditions: not given

| SMILES | IC50 [nM] |
| --- | --- |
| C=CC(=O)NNC(=O)CCc1ccccc1C(=O)N[C@H](C)c1cc(-c2cnn(C)c2)cc(-c2ccn(CC)n2)c1 | 3100 |
| CCn1ccc(-c2cc(-c3cnn(C)c3)cc([C@@H](C)NC(=O)c3ccccc3CCC(=O)NNC(=O)/C=C/C(=O)N3CC(F)C3)c2)n1 | 100 |
| CCn1ccc(-c2cc(-c3cnn(C)c3)cc([C@@H](C)NC(=O)c3ccccc3CCC(=O)NNC(=O)/C=C/C(=O)N3CC(F)(F)C3)c2)n1 | 100 |
| CCOC(=O)/C=C/C(=O)NNC(=O)CCc1ccccc1C(=O)N[C@H](C)c1cc(-c2cnn(C)c2)cc(-c2ccn(CC)n2)c1 | 100 |
| C#CCNC(=O)CCc1ccccc1C(=O)N[C@H](C)c1cc(-c2cnn(C)c2)cc(-c2ccn(CC)n2)c1 | 5000 |
| CCn1ccc(-c2cc(-c3cnn(C)c3)cc([C@@H](C)NC(=O)c3ccccc3CNC(=O)CNC(=O)/C=C/C(=O)N3CC(F)(F)C3)c2)n1 | 500 |
| CCn1ccc(-c2cc(-c3cnn(C)c3)cc([C@@H](C)NC(=O)c3ccccc3CCC(=O)NNC(=O)/C=C/C(=O)N3CCC3)c2)n1 | 100 |
| CCn1ccc(-c2cc(-c3cnn(C)c3)cc([C@@H](C)NC(=O)c3ccccc3CCC(=O)NCCC#N)c2)n1 | > 10000 |
| CCn1ccc(-c2cc(-c3cnn(C)c3)cc([C@@H](C)NC(=O)c3ccccc3CCC(=O)NNC(=O)C(Cl)Cl)c2)n1 | 2200 |
| CCn1ccc(-c2cc(-c3cnn(C)c3)cc([C@@H](C)NC(=O)c3ccccc3CCC(=O)NNC(=O)/C=C/C(=O)NC3CC3)c2)n1 | 200 |
| CCn1ccc(-c2cc(-c3cnn(C)c3)cc([C@@H](C)NC(=O)c3ccccc3CCC(=O)NNC(=O)/C=C/C(=O)NC3CC(F)(F)C3)c2)n1 | 200 |
| CCn1ccc(-c2cc(-c3cnn(C)c3)cc([C@@H](C)NC(=O)c3ccccc3CCC(=O)NNC(=O)CCl)c2)n1 | 300 |

biological target: T1, Replicase polyprotein 1ab; assay: Inhibition of SARS-CoV-2 PL protease using ISG15-AMC as substrate preincubated for 30 mins followed by substrate addition measured for 1 hr; conditions: not given

| SMILES | Ki [nM] |
| --- | --- |
| CCn1ccc(-c2cc(-c3cnn(C)c3)cc([C@@H](C)NC(=O)c3ccccc3CCC(=O)NNC(=O)/C=C/C(=O)N3CC(F)(F)C3)c2)n1 | 1.36 |

biological target: T1, Replicase polyprotein 1ab; assay: Inhibition of SARS-CoV-2 PL protease using Ub-AMC as substrate preincubated for 30 mins followed by substrate addition measured for 1 hr; conditions: not given

| SMILES | Ki [nM] |
| --- | --- |
| CCn1ccc(-c2cc(-c3cnn(C)c3)cc([C@@H](C)NC(=O)c3ccccc3CCC(=O)NNC(=O)/C=C/C(=O)N3CC(F)(F)C3)c2)n1 | 0.25 |

system: not listed separately; assay: (§1) Cytotoxicity against African green monkey Vero E6 cells incubated for 48 hrs by Neutral Red method; type: toxicity, cell-based, Vero C1008; conditions: chlorocebus sabaeus, Vero E6 cells

| SMILES | CC50 at 48 h [nM] |
| --- | --- |
| C=CC(=O)NNC(=O)CCc1ccccc1C(=O)N[C@H](C)c1cc(-c2cnn(C)c2)cc(-c2ccn(CC)n2)c1 | > 250000 |
| CCn1ccc(-c2cc(-c3cnn(C)c3)cc([C@@H](C)NC(=O)c3ccccc3CCC(=O)NNC(=O)/C=C/C(=O)N3CC(F)C3)c2)n1 | > 250000 |
| C#CCNC(=O)CCc1ccccc1C(=O)N[C@H](C)c1cc(-c2cnn(C)c2)cc(-c2ccn(CC)n2)c1 | 256000 |
| CCn1ccc(-c2cc(-c3cnn(C)c3)cc([C@@H](C)NC(=O)c3ccccc3CNC(=O)CNC(=O)/C=C/C(=O)N3CC(F)(F)C3)c2)n1 | > 250000 |
| CCn1ccc(-c2cc(-c3cnn(C)c3)cc([C@@H](C)NC(=O)c3ccccc3CCC(=O)NNC(=O)/C=C/C(=O)N3CCC3)c2)n1 | > 250000 |
| CCn1ccc(-c2cc(-c3cnn(C)c3)cc([C@@H](C)NC(=O)c3ccccc3CCC(=O)NCCC#N)c2)n1 | 146000 |
| CCn1ccc(-c2cc(-c3cnn(C)c3)cc([C@@H](C)NC(=O)c3ccccc3CCC(=O)NNC(=O)C(Cl)Cl)c2)n1 | > 250000 |
| CCn1ccc(-c2cc(-c3cnn(C)c3)cc([C@@H](C)NC(=O)c3ccccc3CCC(=O)NNC(=O)/C=C/C(=O)NC3CC3)c2)n1 | > 250000 |
| CCn1ccc(-c2cc(-c3cnn(C)c3)cc([C@@H](C)NC(=O)c3ccccc3CCC(=O)NNC(=O)/C=C/C(=O)NC3CC(F)(F)C3)c2)n1 | > 250000 |

system: Vero C1008; assay: as §1; type: toxicity, cell-based; conditions: chlorocebus sabaeus, vero c1008, 48 h

| SMILES | CC50 [nM] |
| --- | --- |
| CCn1ccc(-c2cc(-c3cnn(C)c3)cc([C@@H](C)NC(=O)c3ccccc3CCC(=O)NNC(=O)CCl)c2)n1 | > 250000 |

biological target: Ubiquitin carboxyl-terminal hydrolase 14 (Homo sapiens) (UniProt P54578); assay: Inhibition of N-terminal 6His-tagged recombinant human USP14 (91 to 494 residues) expressed in Escherichia coli using Ub-AMC as substrate upto 100 uM; conditions: not given
Sequence (P54578 whole entry, the tested form may be a part): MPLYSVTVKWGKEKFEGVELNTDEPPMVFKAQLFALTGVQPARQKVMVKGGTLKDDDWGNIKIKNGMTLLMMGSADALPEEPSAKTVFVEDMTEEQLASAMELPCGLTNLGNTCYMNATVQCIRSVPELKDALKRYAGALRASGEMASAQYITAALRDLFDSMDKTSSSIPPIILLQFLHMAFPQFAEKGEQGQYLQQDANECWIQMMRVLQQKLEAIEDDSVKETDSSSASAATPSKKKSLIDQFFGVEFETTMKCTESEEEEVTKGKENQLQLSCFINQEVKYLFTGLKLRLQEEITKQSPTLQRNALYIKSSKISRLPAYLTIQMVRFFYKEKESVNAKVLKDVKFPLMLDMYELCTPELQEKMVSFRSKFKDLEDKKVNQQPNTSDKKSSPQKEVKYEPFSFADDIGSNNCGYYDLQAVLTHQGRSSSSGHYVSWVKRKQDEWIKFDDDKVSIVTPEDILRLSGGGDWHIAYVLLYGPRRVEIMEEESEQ

| SMILES | inhibition |
| --- | --- |
| CCn1ccc(-c2cc(-c3cnn(C)c3)cc([C@@H](C)NC(=O)c3ccccc3CCC(=O)NNC(=O)/C=C/C(=O)N3CC(F)(F)C3)c2)n1 | inactive |

biological target: Ubiquitin carboxyl-terminal hydrolase 7 (Homo sapiens) (UniProt Q93009); assay: Inhibition of N-terminal polyhis/GST-tagged full-length human USP7 (1 to 1102 residues) expressed in baculovirus infected insect cells using Ub-AMC as substrate upto 100 uM; conditions: Insect cell
Sequence (Q93009 whole entry, looked up, the tested form may be a part): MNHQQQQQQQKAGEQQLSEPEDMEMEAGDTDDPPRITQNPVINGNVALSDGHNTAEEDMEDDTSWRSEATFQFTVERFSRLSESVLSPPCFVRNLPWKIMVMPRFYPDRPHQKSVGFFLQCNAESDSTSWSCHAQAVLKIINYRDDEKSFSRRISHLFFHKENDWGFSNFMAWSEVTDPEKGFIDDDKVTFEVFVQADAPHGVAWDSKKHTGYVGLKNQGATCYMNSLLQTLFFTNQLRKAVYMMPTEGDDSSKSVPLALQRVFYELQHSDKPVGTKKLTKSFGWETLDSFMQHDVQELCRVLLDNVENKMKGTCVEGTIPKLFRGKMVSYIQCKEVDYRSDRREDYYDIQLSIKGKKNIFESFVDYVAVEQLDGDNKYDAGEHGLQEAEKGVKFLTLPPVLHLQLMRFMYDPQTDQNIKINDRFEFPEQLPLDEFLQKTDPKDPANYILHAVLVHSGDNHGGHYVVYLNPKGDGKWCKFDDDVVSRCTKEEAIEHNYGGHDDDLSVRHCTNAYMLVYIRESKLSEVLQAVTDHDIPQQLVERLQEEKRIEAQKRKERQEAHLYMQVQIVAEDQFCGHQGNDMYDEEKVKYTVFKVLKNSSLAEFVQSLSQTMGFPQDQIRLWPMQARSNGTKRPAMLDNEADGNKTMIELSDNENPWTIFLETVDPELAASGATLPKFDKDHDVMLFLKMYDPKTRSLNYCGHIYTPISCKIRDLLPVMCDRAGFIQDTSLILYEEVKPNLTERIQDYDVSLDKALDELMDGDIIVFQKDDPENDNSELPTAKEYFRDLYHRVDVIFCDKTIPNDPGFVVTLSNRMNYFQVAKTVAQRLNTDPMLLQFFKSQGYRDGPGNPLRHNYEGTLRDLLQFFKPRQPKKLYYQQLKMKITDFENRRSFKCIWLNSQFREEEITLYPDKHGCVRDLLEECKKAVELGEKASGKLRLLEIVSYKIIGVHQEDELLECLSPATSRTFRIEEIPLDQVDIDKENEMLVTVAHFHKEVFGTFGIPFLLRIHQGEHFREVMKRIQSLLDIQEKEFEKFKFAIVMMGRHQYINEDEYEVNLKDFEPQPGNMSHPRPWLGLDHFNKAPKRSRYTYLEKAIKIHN

| SMILES | inhibition |
| --- | --- |
| CCn1ccc(-c2cc(-c3cnn(C)c3)cc([C@@H](C)NC(=O)c3ccccc3CCC(=O)NNC(=O)/C=C/C(=O)N3CC(F)(F)C3)c2)n1 | inactive |

system: SARS-CoV-2; assay: Selectivity ratio of EC50 for SARS-CoV-2 XBB1.16 infected in human Caco-2 cells expressing hTMPRSS/hACE2 to EC50 for wild-type SARS-CoV-2 WA1 infected in human Caco-2 cells expressing hTMPRSS/hACE2; type: functional; conditions: not given

| SMILES | Ratio EC50 |
| --- | --- |
| CC(C)(C)[C@H](NC(=O)C(F)(F)F)C(=O)N1C[C@H]2[C@@H]([C@H]1C(=O)N[C@H](C#N)C[C@@H]1CCNC1=O)C2(C)C | 1.1 |

system: SARS-CoV-2; assay: Antiviral activity against wild-type SARS-CoV-2 WA1 infected in human Caco-2 cells expressing hTMPRSS/hACE2 incubated for 48 hrs in presence of CP-100356 by crystal violet staining based analysis; type: functional, organism-based; conditions: Severe acute respiratory syndrome coronavirus 2, WA1, Caco-2, 48 h

| SMILES | EC50 [nM] |
| --- | --- |
| CC(C)(C)[C@H](NC(=O)C(F)(F)F)C(=O)N1C[C@H]2[C@@H]([C@H]1C(=O)N[C@H](C#N)C[C@@H]1CCNC1=O)C2(C)C | 33.9 |

system: SARS-CoV-2; assay: microbe, parasite or virus in culture; type: functional, organism-based, Vero E6; conditions: Severe acute respiratory syndrome coronavirus 2, Vero C1008, 24 h

| SMILES | EC50 [nM] |
| --- | --- |
| CCn1ccc(-c2cc(-c3cnn(C)c3)cc([C@@H](C)NC(=O)c3ccccc3CCC(=O)NNC(=O)/C=C/C(=O)N3CC(F)C3)c2)n1 | 935 |
| CCn1ccc(-c2cc(-c3cnn(C)c3)cc([C@@H](C)NC(=O)c3ccccc3CCC(=O)NNC(=O)/C=C/C(=O)N3CC(F)(F)C3)c2)n1 | 185 |
| CCn1ccc(-c2cc(-c3cnn(C)c3)cc([C@@H](C)NC(=O)c3ccccc3CCC(=O)NNC(=O)/C=C/C(=O)N3CCC3)c2)n1 | 3200 |
| CCn1ccc(-c2cc(-c3cnn(C)c3)cc([C@@H](C)NC(=O)c3ccccc3CCC(=O)NNC(=O)/C=C/C(=O)NC3CC3)c2)n1 | 5200 |
| CCn1ccc(-c2cc(-c3cnn(C)c3)cc([C@@H](C)NC(=O)c3ccccc3CCC(=O)NNC(=O)/C=C/C(=O)NC3CC(F)(F)C3)c2)n1 | 2400 |

system: not listed separately; assay: Metabolic stability in mouse liver microsomes assessed as half life at 1 uM incubated for 60 mins by LC/MS/MS analysis; type: ADME, Microsome; conditions: liver microsomes

| SMILES | half-life at 1 µM [h] |
| --- | --- |
| CCn1ccc(-c2cc(-c3cnn(C)c3)cc([C@@H](C)NC(=O)c3ccccc3CCC(=O)NNC(=O)/C=C/C(=O)N3CC(F)C3)c2)n1 | 1.3 |
| CCn1ccc(-c2cc(-c3cnn(C)c3)cc([C@@H](C)NC(=O)c3ccccc3CCC(=O)NNC(=O)/C=C/C(=O)NC3CC3)c2)n1 | > 2.42 |
| CCn1ccc(-c2cc(-c3cnn(C)c3)cc([C@@H](C)NC(=O)c3ccccc3CCC(=O)NNC(=O)/C=C/C(=O)NC3CC(F)(F)C3)c2)n1 | 1.31 |

same assay, conditions: microsomes, 1 h, 1 µM

| SMILES | t1/2 [h] |
| --- | --- |
| CCn1ccc(-c2cc(-c3cnn(C)c3)cc([C@@H](C)NC(=O)c3ccccc3CCC(=O)NNC(=O)/C=C/C(=O)N3CCC3)c2)n1 | > 2.42 |

system: SARS-CoV-2; assay: Selectivity ratio of EC50 for SARS-CoV-2 JN.1 infected in human Caco-2 cells expressing hTMPRSS/hACE2 to EC50 for wild-type SARS-CoV-2 WA1 infected in human Caco-2 cells expressing hTMPRSS/hACE2; type: functional; conditions: not given

| SMILES | Ratio EC50 |
| --- | --- |
| CC(C)(C)[C@H](NC(=O)C(F)(F)F)C(=O)N1C[C@H]2[C@@H]([C@H]1C(=O)N[C@H](C#N)C[C@@H]1CCNC1=O)C2(C)C | 2.8 |

system: SARS-CoV-2; assay: Antiviral activity against SARS-CoV-2 JN.1 infected in human Caco-2 cells expressing hTMPRSS/hACE2 incubated for 48 hrs in presence of CP-100356 by crystal violet staining based analysis; type: functional, organism-based; conditions: Severe acute respiratory syndrome coronavirus 2, JN.1, Caco-2, 48 h

| SMILES | EC50 [nM] |
| --- | --- |
| CC(C)(C)[C@H](NC(=O)C(F)(F)F)C(=O)N1C[C@H]2[C@@H]([C@H]1C(=O)N[C@H](C#N)C[C@@H]1CCNC1=O)C2(C)C | 96 |

system: not listed separately; assay: Cmax in C57BL/6J mouse at 50 mg/kg, po measured 5 hrs by LC/MS/MS analysis; type: ADME, organism-based; conditions: in vivo

| SMILES | Cmax [ng/mL] |
| --- | --- |
| CCn1ccc(-c2cc(-c3cnn(C)c3)cc([C@@H](C)NC(=O)c3ccccc3CCC(=O)NNC(=O)/C=C/C(=O)N3CCC3)c2)n1 | < 10 |
